Common to all, as to assay type: in vivo, rat
In data set [1] the test system is uterus of adult rats that have undergone ovariectomies. As to the kind of experiment: Uterotropic action in adult ovariectomized rats (FIG. 1). To be noted: for dose giving increase in uterus weight ("standard" estrogenic activity): treatment day 1-day 3, autopsy day 4. Here is the method: The substances that are to be used according to the invention have very little action in terms of “standard estrogens.” Corresponding estrogenic properties can be examined in the rats that have undergone ovariectomy. In the case of parenteral administration, 17β-estradiol even at a dose of 0.1 μg results in an increase in uterus weight. […] These substances have a correspondingly small action on the parameters of hepatic estrogeneity, for example the increase of the angiotensinogen in the blood. To examine the action of the ERβ-selective agonists in the context according to the invention, their estrogenic action on the genital tract, liver functions, somatotropic factors and on the secretion of gonadotropins was examined in comparison to estradiol in adult rats that have undergone ovariectomies. Determination of the uterotropic action of an ERα- or ERβ-selective agonist (agon) in comparison to estradnol (E2) Study of adult rats that have undergone ovariectomies 14 days after the ovariectomies, treatment day 1-day 3, autopsy day 4, subcutaneous administration in 0.2 ml of vehicle.

Data set [2] relates to uterus and vagina of ovary-intact, sexually immature rats. The data set can be described thus: Effects on uterus and vagina in ovary-intact, sexually immature rats (FIG. 2). The following applies: 7 days subcutaneous. From the text:
The action on the somatotropic functions, gonad functions and the genital tract was studied in infant, gonad-intact, male and female rats. Effects of ERβ-agon or ERβ-selective agonists (agon) (E2) on the uterus and vagina in ovary-intact, sexually immature rats in comparison to estradiol. Treatment of the young animals after weaning over 7 days (day 1-day 7, autopsy day 8, subcutaneous injection) in two tests with different dose ranges.

The test system of data set [3] is gonads of male and female, sexually immature rats. As to the kind of experiment: Effects on gonads and prostate of sexually immature rats (FIG. 3). On the procedure: ERβ-selective properties can be studied in the case of female and male rats that are not sexually mature. […] In the case of a parenteral dose of 1 μg/animal/day, estradiol results in a complete inhibition of testicular growth. […] The action on the somatotropic functions, gonad functions and the genital tract was studied in infant, gonad-intact, male and female rats. Effects of ERβ-agon or ERβ-selective agonists (agon) (E2) on gonads of male and female, sexually immature rats in comparison to estradiol. Treatment of the young animals after weaning over 7 days (day 1-day 7, autopsy day 8, subcutaneous injection).

Data set [4] relates to IGF-I in the plasma from sexually immature rats with intact ovaries. The data set can be described thus: IGF-I in the plasma of sexually immature rats (FIG. 4). The following applies: 7 days subcutaneous, two tests with different dose ranges. From the text:
Effects of ERα- or ERβ-selective agonists (agon) on IGF-I in the plasma from sexually immature rats with intact ovaries in comparison to estradiol (E2). Treatment of the young animals after weaning over 7 days (day 1-day 7, autopsy day 8; subcutaneous injection) in two tests with different dose ranges.

In data set [5] the test system is cholesterol fractions in the plasma from sexually immature rats with intact ovaries. The data set can be described thus: Cholesterol fractions in the plasma of sexually immature rats (FIG. 5). The following applies: 7 days subcutaneous. From the text: Effects of ERα- or ERβ-selective agonists (agon) on the cholesterol fractions in the plasma from sexually immature rats with intact ovaries in comparison to estradiol (E2). Treatment of the young animals after weaning over 7 days (day 1-day 7, autopsy day 8, subcutaneous injection) in two tests with different dose ranges.

The test system of data set [6] is adrenal glands and thymus of sexually immature rats with intact ovaries. The data set can be described thus: Organ weights of adrenal glands and thymus of sexually immature rats (FIG. 6). To be noted: 7 days subcutaneous. From the text: Effects of ERα- or ERβ-selective agonists (agon) on the development of the organ weights of the adrenal glands and the thymus of sexually immature rats with intact ovaries in comparison to estradiol (E2). Treatment of young animals after weaning over 7 days (day 1-day, 7, autopsy day 8, subcutaneous injection).

The test system of data set [7] is body growth of sexually immature rats whose ovaries are intact. As to the kind of experiment: Body growth of sexually immature rats (FIG. 7). To be noted: immature rats with intact ovaries, 7 days subcutaneous. From the text:
Effects of ERα- or ERβ-selective agonists (agon) on the body growth of sexually immature rats whose ovaries are intact in comparison to estradiol (E2). Treatment of the young animals after weaning over 7 days (day 1-day 7, autopsy day 8, subcutaneous injection) in two tests with different dose ranges.

Data set [8] in a line: Plasma levels after one-time oral or subcutaneous administration to ovariectomized rats, RIA (FIG. 8). To be noted: one-time oral 1.0 mg or subcutaneous graduated dosages. Here is the method: Plasma levels of the ERβ-selective agonist after a one-time oral or parenteral (subcutaneous injection) administration to ovariectomized rats, determinations 0.5; 1; 3; 6; 24 hours after oral administration of 1.0 mg (left) or 1; 2; 4; 6; 24 hours after subcutaneous administration of graduated dosages. Immunological determination by means of LCMS-validated Radio Immuno Assay (RIA).

On to `C=C[C@@]12CCc3cc(O)ccc3[C@H]1CC[C@@]1(C)[C@H]2CC[C@@H]1O` [ERβ-agon, 8β-vinyl-1,3,5(10)-estratriene-3,17β-diol], for which the “dose relative to estradiol for comparable uterotropic effect” value in data set [1] (parenteral, versus 0.1 μg of E2) is on record as 1000 fold. Moreover, in data set [1] (subcutaneous), the “dose giving increase in uterus weight ("standard" estrogenic activity)” value was 100 µg. The “weight development of the uterus and vagina” value in data set [2] (autopsy day 8) is “considerable effects on the weight development of the uterus and vagina in extremely low dosages”. In addition, in data set [2] (lowest tested dose), the “effects on uterus and vagina weight compared with ERα-agon and E2” value is “exceed those of ERα-agon, and E2 is statistically significant”. Further, the “growth of the prostate” value in data set [3] (7 days subcutaneous) is listed as “acceleration of the growth of the prostate”. The testicular growth result in data set [3] (7 days subcutaneous, autopsy day 8) is given as “stimulates testicular growth beyond the normal size, which is statistically significant”. The “testicular growth at high doses” value in data set [3] (high doses, 7 days subcutaneous) is reported as “inhibition of the testicular growth”. In addition, the “IGF-I in the plasma” value in data set [4] is on record as “Statistically significant increase of the IGF-I”. In addition, in data set [5] (broad dose range), the “HDL-cholesterol fraction in the plasma” value is “increase of the HDL-cholesterol fraction” and the “total cholesterol in the plasma” value was “elevated plasma levels of the total cholesterol”. Further, in data set [6], the adrenal gland weight result is listed as “increase of adrenal gland weight”; the thymus weight result is “increase of adrenal gland weight and thymus weight”. Besides, the body growth entry in data set [7] (two tests with different dose ranges) is given as “accelerated growth of the animals via a broad dose range”. Further, in data set [8], the “oral bioavailability (plasma levels)” value is on record as “orally readily bioavailable”.
For the molecule `C[C@]12CC[C@@H]3c4ccc(O)cc4CC[C@H]3[C@@H]1CC[C@@H]2O` [E2, estradiol, reference compound], in data set [1] (subcutaneous), the “dose giving increase in uterus weight ("standard" estrogenic activity)” value worked out at 0.1 µg. In addition, in data set [3] (parenteral), the “dose giving complete inhibition of testicular growth” value turned out to be 1 μg/animal/day.
In the case of `C[C@]12CC[C@@H]3c4ccc(O)cc4CC[C@H]3[C@@H]1C[C@H]1OC(=O)C[C@]12O` [ERα-agon, 3,17β-dihydroxy-19-nor-17α-pregna-1,3,5(10)-triene-21,16α-lactone, reference compound], the “induction of uterus growth” value in data set [1] (subcutaneous, compared with ERβ-agon) is “induce uterus growth in the case of much lower dosage than the ERβ-agon”. Also, in data set [4], the “IGF-I in the plasma” value was “No comparable effects”. For the same molecule, in data set [5] (high doses), the “HDL-cholesterol fraction in the plasma at high doses” value was “drop the HDL-cholesterol fraction”; the “total cholesterol in the plasma at high doses” value was “drop the HDL-cholesterol fraction and the total cholesterol”. Further, in data set [6], the adrenal gland weight result is given as “less pronounced positive effects” and the thymus weight entry is listed as “less pronounced positive effects”. Moreover, the “thymus weight at higher dosages” value in data set [6] (higher dosages) was “reduction of the thymus weight”. Further, the “body growth (weight increase) at higher dosages” value in data set [7] (higher dosages) is “considerable reduction of the weight increase”.

The values above are taken from US20030130249A1, “Therapeutic use of estrogen receptor (ER)beta-selective agonists for triggering somatotropic, organotropic and anticatabolic effects (somatotropic therapy)” (Schering AG, priority 2001, published 2003).
